Measurements reported in PMC10030565, “Ubiquitous occurrence of a dimethylsulfoniopropionate ABC transporter in abundant marine bacteria” (The ISME Journal, 2023).

Assays:
R. pomeroyi DSS-3 WT = test: Uptake of 14C-labeled DMSP, wild-type; assay type: cell-based, Ruegeria pomeroyi DSS-3; details: 5 min, 30 °C, mean ± S.D. n = 3
Procedure: (§1) Triplicates of 1 µl ^14C:^12C-DMSP in 3 ml scintillation fluid (EcoLume Liquid Scintillation Cocktail, MP Biomedical, US) were measured on a liquid scintillation analyzer (Tri-Carb 2800TR, Perkin Elmer, UK) after overnight equilibration.
(§2) A single colony of R. pomeroyi DSS-3 WT, ΔdmpXWV mutant, or complemented ΔdmpXWV mutant was inoculated into 5 ml of marine broth medium (MB) and grown overnight at 30 °C under constant shaking (170 rpm). 1 ml preculture was inoculated into 50 ml MB and grown at 30 °C with shaking (130 rpm) until an OD540 of ~0.5-0.7 was reached, then used for DMSP uptake assays.
(§3) Due to a relatively low radiochemical and mid-millimolar range molar concentration of the ^14C:^12C-DMSP stock, we could not conduct uptake kinetics experiments. Instead, we used three DMSP concentrations (50, 150, and 300 µM) and added them to 3 ml of cultures in biological triplicates. Cells were incubated at 30 °C with shaking (130 rpm) for 5 min, filtered onto 0.2 µm pore size Supor filters (∅ 25 mm, Pall Corporation, US), and washed 3x with 1 ml MB medium. Wet filters were transferred to 6 ml scintillation vials and 3 ml EcoLume Liquid Scintillation Cocktail added. After equilibration overnight, samples were measured on a Tri-Carb 2800TR liquid scintillation analyzer. Cells fixed in 2% (vol/vol) freshly prepared paraformaldehyde solution for >15 min at 4 °C in the dark prior to radioisotope addition were used for background correction. Uptake rates were normalized by cell number.
(§4) Bacterial cell numbers used for normalization of uptake rates were determined by flow cytometry. […] 75 to 200-fold sample dilutions in sterile TE buffer (10 mM Tris-HCl, 1 mM EDTA, pH 8.0) were counted in analytical triplicates on a CytoFLEX flow cytometer (Beckman Coulter, UK) at a flow rate of 30 µl min^-1 for 60 sec. The instrument was equipped with a 50 mW 488 nm solid-state diode laser with standard filters and the discriminator set to 525 nm (green fluorescence) (Fig. S1).

[1] = tested on: R. pomeroyi DSS-3 complemented mutant ΔdmpXWV::Gm; test: Uptake of 14C-labeled DMSP, complemented ΔdmpXWV::Gm mutant; assay type: cell-based, Ruegeria pomeroyi DSS-3; details: for Uptake rate: complemented mutant ΔdmpXWV::Gm, 5 min, 30 °C, mean ± S.D. n = 3
Text: To create the ΔdmpXWV knockout mutant regions of homology at the 5′ and 3′ ends of dmpXWV were amplified, alongside the gentamicin cassette from the p34s-Gm plasmid. Amplified DNA fragments were assembled into linearised pk18mobsacB using the HiFi assembly kit (New England Biolabs) according to the manufacturer’s instructions. To construct the complementation plasmid, dmpXWV was cloned into linearised pBBR1McS-km using the HiFi assembly kit. Plasmids were electroporated into competent Escherichia coli S17.1 λpir and conjugated into R. pomeroyi DSS-3. The knockout mutant was selected onto minimal media plates containing gentamicin (10 µg/ml), with resultant colonies screened for kanamycin resistance. Kanamycin-sensitive clones were PCR screened and products sequenced to confirm a double crossover. The complemented mutant strain was selected on MB plates containing gentamicin (10 µg/ml) and kanamycin (80 µg/ml), and colonies confirmed by PCR screening and sequencing.
as §1, §2
as §3, with “Cells fixed in 2% (vol/vol) freshly prepared paraformaldehyde solution for >15 min at 4 °C in the dark prior to radioisotope addition were used for background correction. Uptake rates were normalized by cell number.” left out
as §4

[2] = tested on: R. pomeroyi DSS-3 ΔdmpXWV::Gm mutant; test: Uptake of 14C-labeled DMSP, ΔdmpXWV::Gm mutant; assay type: cell-based, Ruegeria pomeroyi DSS-3; details: for Uptake rate: ΔdmpXWV::Gm, 5 min, 30 °C, mean ± S.D. n = 3
Procedure: Bacterial cell numbers used for normalization of uptake rates were determined by flow cytometry [41]. 1 ml culture was fixed with a final concentration of 0.5% (vol/vol) glutaraldehyde (Electron microscopy grade, BDH, AE) for 30 min at 4 °C, snap frozen in liquid nitrogen, and stored at –80 °C. Samples were thawed at 37 °C for 5 min, stained with SYBR gold (Invitrogen, US) (final concentration 10^-4 of commercial stock) for 10 min at 60 °C in the dark. 75 to 200-fold sample dilutions in sterile TE buffer (10 mM Tris-HCl, 1 mM EDTA, pH 8.0) were counted in analytical triplicates on a CytoFLEX flow cytometer (Beckman Coulter, UK) at a flow rate of 30 µl min^-1 for 60 sec. The instrument was equipped with a 50 mW 488 nm solid-state diode laser with standard filters and the discriminator set to 525 nm (green fluorescence) (Fig. S1).

[3] = molecular target: DmpX (SBP encoded by SPO2441) (Ruegeria pomeroyi, UniProt Q5LQP7); test: biochemical; assay type: binding, Ruegeria pomeroyi DSS-3; design: key to Dissociation constant (Kd): -: not detectable; details: ITC; for binding affinity (in words): DMSP analogues compared to DMSP; for Dissociation constant (Kd): dash = not detectable
Text: (§5) The genes encoding SBPs from R. pomeroyi DSS-3 or R. nubinhibens ISM were amplified from the genome of R. pomeroyi DSS-3 or R. nubinhibens ISM by PCR using FastPfu DNA polymerase (TransGen Biotech, China). The dmpX homologue from P. sp. strain HTCC7211 (locus tag HTCC7211_00013840) was synthesized by the Beijing Genomics Institute (China). The related genes were then cloned into the NdeI/XhoI restriction sites of the pET-22b vector (Novagen, Germany) with a C-terminal His tag. Point mutations in DmpX were introduced using the PCR-based method and verified by DNA sequencing. The SBPs and corresponding mutant forms were produced in E. coli BL21 (DE3). The cells were cultured in the LB medium with 0.1 mg/ml ampicillin at 37 °C to an OD600 of 0.8–1.0 and then induced at 18 °C for 16 h with 0.5 mM isopropyl-β-D-thiogalactopyranoside (IPTG). After induction, cells were collected by centrifugation, resuspended in the lysis buffer (50 mM Tris-HCl, 100 mM NaCl, 0.5% glycerol, pH 8.0), and lysed by a pressure crusher. The proteins were first purified by affinity chromatography on a Ni^2+-NTA column (GE Healthcare, US), and then fractionated by gel filtration on a Superdex G75 column (GE healthcare, US).
(§6) Isothermal titration calorimetry (ITC) measurements were performed at 25 °C using a MicroCal iTC200 system (GE Healthcare, US) or MicroCal PEAQ-ITC system (Malvern Panalytical, UK). The sample cell was loaded with 280 μl of protein sample (30–100 μM), and the reference cell contained distilled water. The syringe was filled with 40 μl of substrates (100 μM–1 mM). The proteins and substrates were kept in the same buffer containing 10 mM Tris-HCl (pH 8.0) and 100 mM NaCl.

DmpX^7211 = DmpX^7211 (Candidatus Pelagibacter sp. HTCC7211, UniProt B6BQI1); test: ITC titration of substrates into recombinant DmpX^7211; assay type: binding; design: key: -: not detectable; details: dash = not detectable
Text: as §5, §6

RnDmpX Tyr200Phe mutant = test: ITC titration of DMSP into RnDmpX Tyr200Phe mutant; assay type: binding, Roseovarius nubinhibens ISM; details: Tyr200 mutated to Phe
Text: as §5
(§7) Isothermal titration calorimetry (ITC) measurements were performed at 25 °C using a MicroCal iTC200 system (GE Healthcare, US) or MicroCal PEAQ-ITC system (Malvern Panalytical, UK). […]

RnDmpX Tyr200Ala mutant = test: ITC titration of DMSP into RnDmpX Tyr200Ala mutant; assay type: binding, Roseovarius nubinhibens ISM; details: Tyr200 mutated to Ala
Text: as §5, §7

[4] = tested on: TmoX (encoded by SPO1548); design: method as in PMID 24550299, PMID 26283766; details: cited from earlier work
RnDmpX = RnDmpX (Roseovarius nubinhibens, UniProt A3SME7); test: ITC titration of DMSP into recombinant RnDmpX; assay type: binding, Roseovarius nubinhibens ISM
Text: as §5, §7

SBP encoded by SPO1131 = test: ITC titration of DMSP into recombinant SBP encoded by SPO1131; assay type: binding, Ruegeria pomeroyi DSS-3
Text: as §5, §7

SBP encoded by SPOA0231 = test: ITC titration of DMSP into recombinant SBP encoded by SPOA0231; assay type: binding, Ruegeria pomeroyi DSS-3
Text: as §5, §7

DmpX^7211, sequence (B6BQI1 27-337 limits assumed): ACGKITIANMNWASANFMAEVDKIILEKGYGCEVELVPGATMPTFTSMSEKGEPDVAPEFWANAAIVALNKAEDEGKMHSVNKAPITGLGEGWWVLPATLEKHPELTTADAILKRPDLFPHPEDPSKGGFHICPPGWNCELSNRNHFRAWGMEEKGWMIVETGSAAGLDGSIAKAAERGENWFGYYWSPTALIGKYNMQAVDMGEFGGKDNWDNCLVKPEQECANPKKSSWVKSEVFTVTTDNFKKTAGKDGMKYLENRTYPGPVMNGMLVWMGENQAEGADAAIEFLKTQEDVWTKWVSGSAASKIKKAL
DmpX (SBP encoded by SPO2441), sequence (Q5LQP7 entry or part of it): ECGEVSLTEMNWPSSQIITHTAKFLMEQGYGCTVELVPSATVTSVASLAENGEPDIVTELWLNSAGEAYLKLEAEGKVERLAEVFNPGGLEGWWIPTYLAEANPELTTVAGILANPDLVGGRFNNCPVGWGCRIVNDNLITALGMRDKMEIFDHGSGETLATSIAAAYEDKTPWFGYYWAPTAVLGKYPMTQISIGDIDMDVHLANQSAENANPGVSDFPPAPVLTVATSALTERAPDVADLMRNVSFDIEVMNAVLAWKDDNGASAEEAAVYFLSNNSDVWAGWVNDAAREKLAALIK
RnDmpX, sequence (A3SME7 entry or part of it): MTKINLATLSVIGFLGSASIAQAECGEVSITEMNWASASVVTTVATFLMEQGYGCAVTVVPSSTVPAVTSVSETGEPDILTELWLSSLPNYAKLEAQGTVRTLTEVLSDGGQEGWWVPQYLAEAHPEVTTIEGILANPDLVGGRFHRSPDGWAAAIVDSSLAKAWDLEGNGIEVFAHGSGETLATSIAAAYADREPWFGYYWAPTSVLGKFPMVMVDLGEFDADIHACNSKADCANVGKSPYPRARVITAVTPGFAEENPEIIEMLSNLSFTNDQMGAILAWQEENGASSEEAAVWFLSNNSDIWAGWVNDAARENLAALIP

C[S+](C)CCC(=O)[O-] [^14C-DMSP, [1-^14C]DMSP]
Uptake rate (R. pomeroyi DSS-3 WT; DMSP concentration 50 µM): 1.852 ± 0.100 fmol cell^-1 min^-1 | Uptake rate (R. pomeroyi DSS-3 WT; DMSP concentration 150 µM): 2.267 ± 0.189 fmol cell^-1 min^-1 | Uptake rate (R. pomeroyi DSS-3 WT; DMSP concentration 300 µM): 3.095 ± 0.081 fmol cell^-1 min^-1 | restoration of import by complementation with dmpXWV (in words) ([1]; complemented mutant versus ΔdmpXWV::Gm): partly restore | Uptake rate ([1]; DMSP concentration 50 µM): 0.946 ± 0.299 fmol cell^-1 min^-1 | Uptake rate ([1]; DMSP concentration 150 µM): 1.221 ± 0.159 fmol cell^-1 min^-1 | Uptake rate ([1]; DMSP concentration 300 µM): 1.893 ± 0.084 fmol cell^-1 min^-1 | reduction of uptake in the mutant in comparison to the wild-type ([2]; 50 μM DMSP, p < 0.001): ~ 5 times | decrease of uptake in the mutant in comparison to the wild-type ([2]; 300 μM DMSP, p < 0.001): ~ 3 times | Uptake rate ([2]; DMSP concentration 50 µM): 0.522 ± 0.040 fmol cell^-1 min^-1 | Uptake rate ([2]; DMSP concentration 300 µM): 1.344 ± 0.150 fmol cell^-1 min^-1

C[N+](C)(C)CC(=O)O [GBT, glycine betaine]
binding affinity (in words) [3]: little binding affinity | Dissociation constant (Kd) ([3]; SPO2441 (DmpX)): - | Dissociation constant (Kd) (DmpX^7211): -

C[S+](C)CCC(=O)[O-] [DMSP, Dimethylsulfoniopropionate]
Kd ([3]; 25 °C, 10 mM Tris-HCl pH 8.0, 100 mM NaCl, SPO2441 (DmpX), read-out: Dissociation constant (Kd)): 1100 nM | binding affinity for DMSP (in words) (RnDmpX Tyr200Phe mutant): abolished | binding affinity for DMSP (in words) (RnDmpX Tyr200Ala mutant): abolished | binding affinity to DMSP (in words) [4]: does not show any binding affinity | Kd (RnDmpX): 474 nM | high binding affinity for DMSP (in words) (SBP encoded by SPO1131): did not | high binding affinity for DMSP (in words) (SBP encoded by SPOA0231): did not

C[N+](C)(C)CCO [choline]
binding affinity (in words) [3]: little binding affinity | Dissociation constant (Kd) ([3]; SPO2441 (DmpX)): -

C[N+](C)(C)[O-] [TMAO, trimethylamine N-oxide]
binding affinity (in words) [3]: little binding affinity | Dissociation constant (Kd) ([3]; SPO2441 (DmpX)): - | Dissociation constant (Kd) (DmpX^7211): -

C[N+](C)(C)CC(O)CC(=O)[O-] (centres unmarked) [carnitine]
binding affinity (in words) [3]: little binding affinity | Dissociation constant (Kd) ([3]; SPO2441 (DmpX)): - | Dissociation constant (Kd) (DmpX^7211): -
